Source: ChEMBL document CHEMBL3272027, “Chemoimmunotherapy of cancer” (1977)

Legend:
Assay type in all cases: functional
[1] = tested on: P388; assay: In vivo antitumor activity against mouse P388 cells in 3PS31 test system at 25 mg/kg administered on day 1, 5 and 9 relative to control
[2] = tested on: P388; assay: In vivo antitumor activity against mouse P388 cells in 3PS31 test system at 12.5 mg/kg administered on day 1, 5 and 9 relative to control
[3] = tested on: P388; assay: In vivo antitumor activity against mouse P388 cells in 3PS31 test system at 50 mg/kg administered on day 1, 5 and 9 relative to control
[4] = tested on: P388; assay: In vivo antitumor activity against mouse P388 cells in 3PS31 test system at 75 mg/kg administered on day 1, 5 and 9 relative to control
[5] = tested on: P388; assay: In vivo antitumor activity against mouse P388 cells in 3PS31 test system at 6.25 mg/kg administered on day 1, 5 and 9 relative to control

| SMILES | T/C [1] [%] | T/C [2] [%] | T/C [3] [%] | T/C [4] [%] | T/C [5] [%] |
| --- | --- | --- | --- | --- | --- |
| O=[N+]([O-])c1cc([N+](=O)[O-])c(NCCSCCCl)c(S(=O)(=O)O)c1 | 124 | 111 | 124 | 118 |  |
| O=C(O)c1cc([N+](=O)[O-])cc([N+](=O)[O-])c1NCCSCCCl | 111 | 102 | 106 |  |  |
| O=[N+]([O-])c1cc([N+](=O)[O-])c(NCCCSCCCl)c(S(=O)(=O)O)c1 | 136 | 132 | 128 |  | 111 |
